SMILES strings stand for the structures.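 Each compound was tested at five concentrations against cells in 96-well plates for 48 hours. At the GI50, growth is halved.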 Active and inactive are the calls of the source. Cut-off read from the data, not from the text of the source: active = GI50 up to about 1.1 µM and inactive = higher. A value given as a limit tells only on which side of the number the result lay.

We go through eleven compounds from ChEMBL document CHEMBL1201862, “PubChem BioAssay data set” (2004).

Some test systems named below: SNB-75; UACC-62; A498; K562; RXF 393; OVCAR-3; SF-268; SN12C; KM12; ACHN; CCRF-CEM; EKVX; U-251; SF-295; LOX IMVI; COLO 205; NCI-H23; TK-10.
Holding throughout (experiment): NCI-60 cell line screen, 48 h

Take `Cc1cc(C)c2c(c1)CSCc1cc(C)cc(C)c1-2`: the GI50 is 37.3 µM (inactive) in the assay on SNB-75; 23.4 µM (inactive) with UACC-62; 28.1 µM (inactive) in the assay with A498; 32.8 µM (inactive) in the assay with K562; 39.4 µM (inactive) with RXF 393; 30.3 µM (inactive) in the assay with OVCAR-3. Also, the GI50 is 38.7 µM (inactive) with SF-268; 35.2 µM (inactive) in the assay on SN12C; 42.6 µM (inactive) in the assay with KM12; 35.4 µM (inactive) with ACHN; 23 µM (inactive) in the assay on CCRF-CEM; 24.2 µM (inactive) in the assay with EKVX. For the same compound, the GI50 with U-251 was 19.8 µM (inactive); in the assay with SF-295, 25.6 µM (inactive); in the assay on LOX IMVI, 17.3 µM (inactive); with COLO 205 it was 26.5 µM (inactive); in the assay on NCI-H23, 36.9 µM (inactive); with TK-10, > 100 µM (inactive).

With `Sc1nnc(COc2ccc(Cl)cc2Cl)[nH]1`, the GI50 in the assay on SNB-75, with UACC-62, in the assay with A498, in the assay with K562, with RXF 393 and in the assay with OVCAR-3 was > 100 µM (inactive) throughout. The GI50 in the assay with SF-268, with SN12C, with ACHN, in the assay with CCRF-CEM, in the assay on EKVX and in the assay on U-251 was > 100 µM (inactive) each time. For the same compound, the GI50 with SF-295, in the assay with LOX IMVI, with NCI-H23 and in the assay on TK-10 was > 100 µM (inactive) in each case.

Take `C#CC1(O)CC(c2ccccc2)N(C)C(c2ccccc2)C1` (configuration not stated): the GI50 is > 100 µM (inactive) in the assay on SNB-75; > 100 µM (inactive) in the assay with UACC-62; > 100 µM (inactive) with A498; 78.9 µM (inactive) in the assay with K562; > 100 µM (inactive) with RXF 393; > 100 µM (inactive) in the assay with OVCAR-3. Also, the GI50 in the assay with SF-268, in the assay on SN12C, in the assay with KM12, in the assay on ACHN, with CCRF-CEM and in the assay with EKVX was > 100 µM (inactive) each time. Also, the GI50 is > 100 µM (inactive) in the assay with U-251; > 100 µM (inactive) with SF-295; 51.5 µM (inactive) in the assay on LOX IMVI; > 100 µM (inactive) with COLO 205; > 100 µM (inactive) with NCI-H23; > 100 µM (inactive) in the assay with TK-10.

As to `COc1cccc(NC(=O)/C(CS(=O)(=O)CCC(C(C)=O)C(C)=O)=N/NC(C)(C)C)c1`, the GI50 in the assay with SNB-75, with UACC-62, in the assay with A498, with K562, in the assay on RXF 393 and in the assay with OVCAR-3 was > 100 µM (inactive) in each case. The GI50 in the assay on SF-268, with SN12C, with KM12, with ACHN, in the assay on CCRF-CEM and in the assay with EKVX was > 100 µM (inactive) throughout. The GI50 in the assay on U-251, in the assay with LOX IMVI, in the assay on COLO 205, with NCI-H23 and in the assay on TK-10 was > 100 µM (inactive) in each case.

In the case of `COc1ccc(OC)c(/C=C(/C#N)c2ccccc2)c1`, the GI50 in the assay on SNB-75 is 10.8 µM (inactive); in the assay on UACC-62, 5.32 µM (inactive); with A498, 20.2 µM (inactive); in the assay with K562, 3.15 µM (inactive); with RXF 393, 10.2 µM (inactive); in the assay on OVCAR-3, 28.2 µM (inactive). Also, the GI50 was 34 µM (inactive) with SF-268; 32.6 µM (inactive) in the assay with SN12C; 10 µM (inactive) in the assay on KM12; 49 µM (inactive) with ACHN; 17.5 µM (inactive) with CCRF-CEM; 30.6 µM (inactive) with EKVX. In addition, the GI50 was 31.8 µM (inactive) with U-251; 39.4 µM (inactive) in the assay with SF-295; 16.1 µM (inactive) with LOX IMVI; 20.5 µM (inactive) in the assay with COLO 205; 23.5 µM (inactive) with NCI-H23; 28.4 µM (inactive) in the assay on TK-10.

Take `CC(OC1CC(=O)CC2C(=O)C=CC(=O)C12)c1ccccc1` (configuration not stated): the GI50 in the assay with SNB-75 was 25.6 µM (inactive); with UACC-62, 16.2 µM (inactive); with A498, 18.1 µM (inactive); with K562, 3.31 µM (inactive); with RXF 393, 18.9 µM (inactive); in the assay with OVCAR-3 it was 19.2 µM (inactive). For the same compound, the GI50 in the assay on SF-268 was 21.2 µM (inactive); in the assay with SN12C, 19 µM (inactive); in the assay with KM12, 16.6 µM (inactive); with ACHN it was 11.2 µM (inactive); in the assay with CCRF-CEM it was 2.67 µM (inactive); with EKVX, 16.2 µM (inactive). Moreover, the GI50 is 14.5 µM (inactive) with U-251; 16.6 µM (inactive) with SF-295; 17.2 µM (inactive) in the assay with LOX IMVI; 16.9 µM (inactive) with COLO 205; 18.1 µM (inactive) with NCI-H23; 17.8 µM (inactive) in the assay with TK-10.

Regarding `NC(=S)Nc1nnc(-c2ccc(-c3nnc(NC(N)=S)o3)cc2)o1`, the GI50 in the assay with SNB-75, with UACC-62, in the assay on A498, with K562, in the assay with RXF 393 and in the assay with OVCAR-3 was > 100 µM (inactive) in each case. Also, the GI50 with SF-268, in the assay on SN12C, in the assay on KM12, with ACHN, in the assay with CCRF-CEM and with EKVX was > 100 µM (inactive) each time. The GI50 in the assay on U-251, in the assay on SF-295, with LOX IMVI, in the assay on COLO 205, in the assay on NCI-H23 and in the assay with TK-10 was > 100 µM (inactive) each time.

Turning to `O=C1CC2CCCCC2=C1O` (configuration not stated), the GI50 in the assay with SNB-75, in the assay on UACC-62, in the assay with A498, in the assay on K562, with RXF 393 and in the assay with OVCAR-3 was > 100 µM (inactive) each time. Also, the GI50 in the assay with SF-268, in the assay with SN12C, with KM12, in the assay on ACHN, in the assay with CCRF-CEM and in the assay with EKVX was > 100 µM (inactive) throughout. Also, the GI50 in the assay on U-251, in the assay on SF-295, in the assay with LOX IMVI, in the assay with COLO 205, in the assay on NCI-H23 and with TK-10 was > 100 µM (inactive) each time.

In the case of `Cc1ccc(S(=O)(=O)N/N=c2\c(C)c(C3=NS(=O)(=O)c4cc(S(N)(=O)=O)c(Cl)cc4N3)oc3c(Cl)cc(Cl)cc23)cc1`, the GI50 in the assay on SNB-75 was > 100 µM (inactive); in the assay on UACC-62 it was > 100 µM (inactive); in the assay with A498 it was > 100 µM (inactive); in the assay on K562, 61.1 µM (inactive); in the assay on RXF 393, 59.7 µM (inactive); with OVCAR-3, > 100 µM (inactive). Besides, the GI50 with SF-268 is > 100 µM (inactive); in the assay with SN12C, > 100 µM (inactive); with KM12 it was > 100 µM (inactive); with ACHN it was > 100 µM (inactive); in the assay with CCRF-CEM, 32.2 µM (inactive); in the assay on EKVX it was > 100 µM (inactive). Also, the GI50 is 23.5 µM (inactive) in the assay on U-251; > 100 µM (inactive) in the assay with SF-295; 86.5 µM (inactive) in the assay with LOX IMVI; 22.3 µM (inactive) with COLO 205; > 100 µM (inactive) in the assay with NCI-H23; > 100 µM (inactive) in the assay on TK-10.

As to `COC(=O)CCC1(NS(=O)(=O)c2ccc(C)cc2)CCC(C(C)(C)C)CC1` (configuration not stated), the GI50 with SNB-75 was 14.3 µM (inactive); with UACC-62, 11.9 µM (inactive); in the assay with A498 it was 13.6 µM (inactive); with K562, 4.91 µM (inactive); with RXF 393, > 10 µM (inactive); in the assay with OVCAR-3, 10.3 µM (inactive). Also, the GI50 with SF-268 was > 10 µM (inactive); with SN12C, 13.7 µM (inactive); in the assay with KM12, 13.1 µM (inactive); in the assay on ACHN, > 10 µM (inactive); in the assay with CCRF-CEM, 9.89 µM (inactive); in the assay with EKVX it was > 10 µM (inactive). Also, the GI50 in the assay on U-251 was 14.3 µM (inactive); in the assay with SF-295, 11.8 µM (inactive); in the assay on LOX IMVI, 17.3 µM (inactive); in the assay on COLO 205 it was 13.4 µM (inactive); in the assay with NCI-H23, 9.71 µM (inactive); in the assay with TK-10, 18 µM (inactive).

For `COc1cc(CNc2ccc(C(C)C)cc2)cc(OC)c1OC`, the GI50 in the assay on SNB-75 is 23.7 µM (inactive); in the assay with UACC-62, 16 µM (inactive); in the assay with A498, 30.4 µM (inactive); in the assay on K562, 8.57 µM (inactive); in the assay on RXF 393, 0.693 µM (active); with SF-268, 54.7 µM (inactive). Also, the GI50 in the assay with SN12C was 17.4 µM (inactive); in the assay on KM12, 18.5 µM (inactive); in the assay on ACHN, 21.8 µM (inactive); in the assay on CCRF-CEM, 19 µM (inactive); in the assay with EKVX, 51.8 µM (inactive); in the assay with U-251, 15.4 µM (inactive). Moreover, the GI50 in the assay on LOX IMVI is 16.2 µM (inactive); with NCI-H23, 20.1 µM (inactive); with TK-10 it was 47.4 µM (inactive).
